The term IC50 denotes the midpoint of a concentration-inhibition curve.

The target of this test is Beta-secretase 1 (Homo sapiens, UniProt P56817).
Chain of Beta-secretase 1 (P56817 whole entry): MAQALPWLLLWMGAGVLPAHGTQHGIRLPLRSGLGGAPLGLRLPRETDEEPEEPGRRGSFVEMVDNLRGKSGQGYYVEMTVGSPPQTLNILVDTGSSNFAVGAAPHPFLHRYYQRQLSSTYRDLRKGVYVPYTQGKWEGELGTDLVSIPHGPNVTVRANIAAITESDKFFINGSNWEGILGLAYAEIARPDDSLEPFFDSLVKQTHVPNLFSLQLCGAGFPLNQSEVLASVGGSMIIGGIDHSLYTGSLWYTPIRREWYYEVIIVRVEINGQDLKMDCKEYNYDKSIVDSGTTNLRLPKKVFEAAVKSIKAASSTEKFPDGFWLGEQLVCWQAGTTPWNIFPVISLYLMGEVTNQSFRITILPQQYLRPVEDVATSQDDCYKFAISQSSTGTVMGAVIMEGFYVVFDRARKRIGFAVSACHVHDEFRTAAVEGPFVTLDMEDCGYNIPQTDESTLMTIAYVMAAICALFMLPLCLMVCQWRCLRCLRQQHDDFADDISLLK
Description: Inhibition of BACE1 activity
In turn, `C=C(c1ccccc1)c1cc(C(=O)N[C@@H](Cc2ccccc2)[C@H](O)CNC2CC2)cc(N(C)S(C)(=O)=O)c1` showed an IC50 of 1300 nM.

`CN(c1cc(CCC2CC2)cc(C(=O)N[C@@H](Cc2ccccc2)[C@H](O)CNC2CC2)c1)S(C)(=O)=O`: the IC50 turned out to be 420 nM.

In the case of `CN(c1cc(/C=C\C2CC2)cc(C(=O)N[C@@H](Cc2ccccc2)[C@H](O)CNC2CC2)c1)S(C)(=O)=O`, the half-inhibitory concentration (IC50) came out at 35 nM.

`CN(c1cc(C(=O)N[C@@H](Cc2ccccc2)[C@H](O)CNC2CC2)cc(C(O)c2ccccc2)c1)S(C)(=O)=O` (stereo partly drawn) showed an IC50 of 5900 nM.

With `CN(c1cc(Cc2ccccc2)cc(C(=O)N[C@@H](Cc2ccccc2)[C@H](O)CNC2CC2)c1)S(C)(=O)=O`, the half-maximal inhibitory concentration (IC50) is 4630 nM. The IC50 values of the last two compounds are within 1.5-fold of each other.

For the compound `CNC(=O)c1cc(C(=O)N[C@@H](Cc2ccccc2)[C@H](O)CNC2CC2)cc(N(C)S(C)(=O)=O)c1`, the half-maximal inhibitory concentration (IC50) is 980 nM.

`CN(c1cc(C(=O)N[C@@H](Cc2ccccc2)[C@H](O)CNC2CC2)cc(C(O)Cc2ccccc2)c1)S(C)(=O)=O` (stereo partly drawn) showed an IC50 of 5500 nM.

Compound `CN(c1cc(C(=O)N[C@@H](Cc2ccccc2)[C@H](O)CNC2CC2)cc(C(=O)C2CCCCC2)c1)S(C)(=O)=O` yielded a half-inhibitory concentration (IC50) of 450 nM. Against the preceding compound, the IC50 is about 12-fold lower.

With `CN(c1cc(C(=O)Cc2ccccc2)cc(C(=O)N[C@@H](Cc2ccccc2)[C@H](O)CNC2CC2)c1)S(C)(=O)=O`, the IC50 was 1400 nM.

`CC(C)C(=O)c1cc(C(=O)N[C@@H](Cc2ccccc2)[C@H](O)CNC2CC2)cc(N(C)S(C)(=O)=O)c1` had a half-inhibitory concentration (IC50) of 240 nM.

Compound `CN(c1cc(/C=C/C2CC2)cc(C(=O)N[C@@H](Cc2ccccc2)[C@H](O)CNC2CC2)c1)S(C)(=O)=O` had an IC50 of 730 nM.

For the compound `CCC(=O)c1cc(C(=O)N[C@@H](Cc2ccccc2)[C@H](O)CNC2CC2)cc(N(C)S(C)(=O)=O)c1`, the IC50 was found to be 1500 nM.

`CN(c1cc(C(=O)N[C@@H](Cc2ccccc2)[C@H](O)CNC2CC2)cc(C(=O)C2CCCC2)c1)S(C)(=O)=O` displayed an IC50 of 180 nM.

(Values after ChEMBL document CHEMBL1148630, “Conformationally biased P3 amide replacements of beta-secretase inhibitors” (Bioorg Med Chem Lett, 2006).)
